Source: patent US20250000979A1, “TRIPLET-TRIPLET ENERGY TRANSFER WITH LIGHT EXCITATION AT LONG WAVELENGTHS AND METHODS THEREOF” (priority 2023, published 2025)
Marks after values point to notes of the source that are not given here.

How the values were obtained:
[1] = in toluene, calculated by TD-DFT, referred to previous studies; cited from earlier work
[2] = Encapsulation efficiency and loading capacity of Os/BC NP (HPLC); format: physicochemical; conditions: component of Os/BC NP
Procedure: Flash nanoprecipitation method was used to fabricate the photosensitizer/prodrug-loading nanoparticles. […] Different formulations (Os NPs, BC NPs and Os/BC NPs) were then prepared with optimized ratios of components. Briefly, 224 μL of the mixed stock solution was added into 1.8 mL N2-saturated water under vortexing. The resulted solutions were added to dialysis bags (MW: 3400 Da) and dialyzed against 4 L of water for 24 h. The water out of dialysis bag was renewed every 8 h. The resulted solution of NPs was collected and filtrated with 220 nm filter. Finally, the NPs solutions were concentrated by ultrafiltration (Mw=100 kDa, 2000×g, 10 min) and stored at 4° C. until use. The concentrations of each component were measured by using HPLC. Loading capacity and encapsulation efficiency were calculated as follow: […]

[3] = Stern-Volmer phosphorescence quenching assay (TTET from Os(bptpy)2^2+ to BODIPY-Cb); format: physicochemical
Procedure: The energy transfer quenching rate constants (kTTET) was measured by Stern-Volmer experiment. […] Oxygen was removed by nitrogen bubbling (50 mL/min) for 10 min.
Energy transfer quenching rate constants of this TTET process, quantified as kTTET, can be calculated based on the below equation (2)
(τ0: phosphorescence lifetime of Os(bptpy)2^2+ in N2-saturated solution without quencher.)
For Os(bptpy)2^2+, τ0=0.20 μs.

[4] = N2-saturated solution without quencher; cited from earlier work
[5] = Photophysical properties (UV-Vis absorption, emission, energy levels); format: physicochemical; conditions: for λabs, max (S0-S1): S0-S1 (1MLCT) absorption; for λabs, max (S0-S1) / λabs, max (S0-T1): dichloromethane with 2% acetone, 10 μM; for λabs, max (S0-T1): S0-T1 (3MLCT, S-T) absorption; for E (absorption coefficient, S0-T1 band): at 688 nm (S0-T1); for Energy level T1 state: calculated from maximum T1 (phosphorescence) emission wavelength
Text: The absorption peak at about 492 nm is identified as the singlet metal-to-ligand charge transfer (^1MLCT) absorption, also termed as singlet-singlet (S-S) absorption. […] The two twistable bromophenyl groups of the bromophenyl terpyridine ligands extend the S-T absorption from 650 nm to 750 nm with increased absorption coefficient.
CombiFlash Rf chromatography instrument was purchased from Teledyne ISCO (Lincoln, USA) for chemical purification. Light sources used in this study were purchased from Yuanming Laser (Ningbo, China) and Mightex (CA, USA). The purity verification and photolysis study were conducted with a high-performance liquid chromatography (HPLC) system (Agilent technologies, 1260), attached with C-18 columns which were obtained from Agilent (Santa Clara, California, United States). Nuclear magnetic resonance (NMR) spectroscopy was collected by Bruker AVANCE III HD 500 spectrometer (MA, US). Fluorescence, phosphorescence and UV-vis spectra were collected by a SpectraMax M4 microplate reader (Molecular Devices, CA, US). The particle size and surface charge were recorded by a dynamic light scattering (DLS) device, Zetasizer Nano-ZS90 (Malvern instruments, UK). Transmission electron microscope (TEM) imaging was conducted on a Hitachi HT7700 TEM (Tokyo, Japan). ACEA NovoCyte Quanteon flow cytometer (ACEA Biosciences, CA, USA) was used for flow cytometry. In vivo and ex vivo imaging of the mice were conducted with an In Vivo Imaging System (PerkinElmer, USA). Devices for animal study like including balance and vernier caliper were kindly provided by The Centre for Comparative Medicine Research (CCMR), The University of Hong Kong.

HeLa tumor = assay: In vivo light-triggered prodrug activation and tumor inhibition; parameters: species or system BALB/c nude mice; conditions: 8 mg/kg intravenous Day 1 and 6, no light
Procedure: Encouraged by the anti-proliferation effect and tumor retention capability, Os/BC NPs were considered as an applicable agent for light-triggered drug release and photoactivated cancer chemotherapy. The HeLa tumor-bearing mice were randomly divided into […] (n=5) when the tumors reached at around […]. PBS, free Cb (8 mg/kg), Os NPs (at the equivalent concentration of Os in Os/BC NPs), BC NPs (at the equivalent concentration of Cb) and Os/BC NPs (at the equivalent concentration of Cb) were intravenously injected on Day 1 (FIG. 6C). At 24 h post injection, NIR-light irradiation (690 nm, 300 mW/cm^2, 10 min) was applied topically onto the tumor area (FIG. 6D). The formulation injection and light irradiation were repeated on Day 6 and 7, respectively. For evaluating therapeutic efficacy, tumor volume was recorded within the treatment period. […] However, no statistical difference was found between Group 3 and Groups 1, 2, 4 and 5. […] Hematoxylin and eosin (H&E) staining assay was conducted to investigate the pathology of the tumors and organs. […]
The anti-tumor efficacy of the formulations in presence or absence of light was investigated with HeLa tumor-bearing mice. […] Tumor sizes and body weights were measured during the period, and the tumor volume was calculated as V=½×width^2×length. […]

Row | Compound | T1 lifetime [1] | Encapsulation Efficiency [2] | Loading Capacity [2] | Quenching constant kq ([3]; 10 μM Os(bptpy)2^2+, quencher BODIPY-Cb 0-7.5 μM, N2) | TTET rate constant (kTTET) ([3]; energy transfer from T1 of Os(bptpy)2^2+ to T1 of BODIPY-Cb) | τ0 phosphorescence lifetime [4] | λabs, max (S0-S1) [5] | λabs, max (S0-S1) ([5]; listed as Os(bptpy)2•2PF6) | λabs, max (S0-T1) [5] | λabs, max (S0-T1) ([5]; listed as Os(bptpy)2•2PF6) | E (absorption coefficient, S0-S1 band) ([5]; at 491 nm (S0-S1)) | E (absorption coefficient, S0-T1 band) [5] | E (absorption coefficient, S0-T1 band) ([5]; listed as Os(bptpy)2•2PF6) | Energy level S1 state ([5]; calculated by maximum S1 emission wavelength, E = 1240/λem, S1) | Energy level T1 state ([5]; E = 1240/λem) | Energy level T1 state ([5]; E = 1240/λem, listed as Os(bptpy)2•2PF6) | λem, max ([5]; λex = 491 nm) | λem, max ([5]; λex = 688 nm) | tumor volume (anti-tumor effect) (HeLa tumor)
1 | Os (II) bromophenyl terpyridine complex [Os(bptpy)2^2+] | 0.20^f μs | 29.43% | 0.22% | (5.491±0.282)×10^4 M^−1 | (2.72±0.14)×10^11 M^−1 s^−1 | 0.20 μs | about 492 nm | 491 (S0-S1) nm | 688 nm | 688 (S0-T1) nm | 73500 M⁻¹ cm⁻¹ | 26600 M⁻¹ cm⁻¹ | 26600 M⁻¹ cm⁻¹ | 2.56^h eV | 1.69 eV | 1.69^i eV | 498^c nm | 734^d nm | 
2 | O=C(O)CCCc1ccc(N(CCCl)CCCl)cc1 [chlorambucil] |  |  |  |  |  |  |  |  |  |  |  |  |  |  |  |  |  |  | did not exhibit detectable anti-tumor effect
